# From PMC8072580, “Predicting Pharmacokinetic Properties of Potential Anticancer Agents via Their Chromatographic Behavior on Different Reversed Phase Materials” (International Journal of Molecular Sciences, 2021)
# Read-outs that look alike come from different tables or passages of the source.
# Assays:
# [1] = Micellar liquid chromatography (MLC), ODS-2 column, Brij 35 effluent: chromatographic lipophilicity; assay type: physicochemical; details: pH 7.4, ODS-2 column, 25 °C
# Source text: There are several theories that describe the effect of the concentration of the surfactant in the effluent on the retention of the solute in MLC [23]. The following Foley’s equation is best known in lipophilicity studies:(2) 1/k=1/km+KAM/km[M] where [M] is the total concentration of the surfactant in the mobile phase minus CMC; KAM is the constant that describes solute-micelle binding; and km is the solute retention parameter at the micellar concentration of zero, i.e., when the concentration of the surfactant monomer is equal to CMC. The KAM and km parameters can be evaluated from the slope and intercept of the experimental 1/k vs. [M] relationships.
# Equation (2) describes a linear dependence between decreasing retention and increasing micelle concentration. This equation is valid for aqueous solutions of surfactant or mobile phases with the same concentrations of the organic modifier. The micellar retention parameter, log km, is considered analogous to the log kw parameter evaluated in RPLC. According to the information presented above, this parameter is considered to be a lipophilicity descriptor, and Equation (2) is a simple way to indirectly determine the lipophilic properties of compounds. It is postulated that retention in micellar chromatography depends on hydrophobic (lipophilic), electronic, and steric features of the compounds in a similar way as has been noted concerning pharmacokinetic phenomena. The additional similarity results from the fact that the phospholipids, cholesterol, fatty acids, and triglycerides included in the extracellular and intracellular fluids also form micelles with proteins.
# (§1) In our investigations, the micellar retention factors were used to calculate the log km parameters using Equation (2) (Table 2). For all of the compounds 1-19, the relationships of 1/k vs. [M] were obtained with very good linearity, confirming that Foley’s equation correctly describes the effect of the concentration of the surfactant in the effluent on the retention of the solute. In our studies, the micellar log km parameters for three pharmacologically active sets of compounds 1-6, 7-14, and 15-19 and the log k factors for solutes 15-19 obtained on IAM and end-capped ODS stationary phases were determined experimentally. All these retention factors, together with the log kw values for compounds 1-14 obtained in our earlier investigations on IAM and end-capped ODS stationary phases, were used as lipophilicity descriptors in the QSARs methodology to predict the pharmacokinetic descriptors of the compounds that were tested.
# (§2) Shimadzu Vp (Shimadzu, Izabelin, Polska) liquid chromatographic system was used in HPLC measurements. It was equipped with an LC 10AT pump, SPD 10A UV–Vis detector, SCL 10A system controller, CTO-10 AS chromatographic oven, and Rheodyne injector valve with a 20 μL loop. As the stationary phases, 3 different revered-phase materials were applied: Spherisorb ODS-2 column, 125 × 4 mm i.d., 5 μm (Merck, Lublin, Poland), Regis IAM.PC.DD2 column, 100 × 4.6 mm i.d., 10 μm (Morton Grove, Illinois, USA), and Purosphere RP-18e column, 125 × 4 mm i.d., 5 μm (Merck, Lublin, Poland).
# In the MLC technique with an ODS-2 column, buffered Brij 35 mixtures (0.15; 0.125, 0.10, and 0.075 mol/L) with 7% (v/v) addition of isopropanol were used as mobile phases. The buffer was prepared from 0.01 mol/L solutions of Na2HPO4 and citric acid, and the pH 7.4 value was fixed before mixing with an organic modifier. The flow rate was 1 mL/min. Buffered acetonitrile mixtures were used as effluents with the IAM column. Acetonitrile concentration, expressed as a volume fraction, was changed in the range of 0.2–0.5, with the constant step of 0.1. The flow rate was 1.3 mL/min. Acetonitrile concentration was changed in the range of 0.3–0.6 with the RP-18e column, with the constant step of 0.1 and flow rate of 0.1 mL/min. As solutes tested there were used 19 newly designed structurally related compounds. […]
# Danio rerio = system: Danio rerio; parameters: method as in PMID 33390035; details: cited from earlier work
# [2] = parameters: method as in PMID 31864156; details: IAM.PC.DD2 column, buffered acetonitrile; cited from earlier work
# [3] = parameters: method as in PMID 31864156; details: end-capped ODS column, aqueous acetonitrile; cited from earlier work
# human cancer cells = system: human cancer cells; parameters: method as in PMID 31864156, PMID 16545495, PMID 25528370; details: cited from earlier work
# [4] = End-capped ODS (RP-18e) column chromatography: log kw,ODS; assay type: physicochemical; details: acetonitrile 0.3-0.6, 25 °C
# Source text: as §1, §2
# (§3) In the MLC technique with an ODS-2 column, buffered Brij 35 mixtures (0.15; 0.125, 0.10, and 0.075 mol/L) with 7% (v/v) addition of isopropanol were used as mobile phases. The buffer was prepared from 0.01 mol/L solutions of Na2HPO4 and citric acid, and the pH 7.4 value was fixed before mixing with an organic modifier. The flow rate was 1 mL/min. Buffered acetonitrile mixtures were used as effluents with the IAM column. Acetonitrile concentration, expressed as a volume fraction, was changed in the range of 0.2–0.5, with the constant step of 0.1. The flow rate was 1.3 mL/min. Acetonitrile concentration was changed in the range of 0.3–0.6 with the RP-18e column, with the constant step of 0.1 and flow rate of 0.1 mL/min. As solutes tested there were used 19 newly designed structurally related compounds. Samples were dissolved in acetonitrile c.a. 0.005 mg/mL. The compounds were detected under UV light at λmax 254 nm. All measurements were carried out at a constant temperature (25 °C). The dead time values were measured from non-retained compound (e.g., sodium chloride) peaks. All reported k values are the average of at least 3 independent measurements.
# [5] = Immobilized artificial membrane (IAM.PC.DD2) chromatography: log kw,IAM; assay type: physicochemical; details: IAM.PC.DD2 column, buffered acetonitrile 0.2-0.5, 25 °C
# Source text: as §1, §2, §3
# [6] = 0.075 M Brij 35, 7% isopropanol
# [7] = 0.125 M Brij 35, 7% isopropanol
SMILES,"k (MLC retention factor) [1, 6]","k (MLC retention factor) ([1]; 0.1 M Brij 35, 7% isopropanol)","k (MLC retention factor) [1, 7]","k (MLC retention factor) ([1]; 0.15 M Brij 35, 7% isopropanol)",safety for early life stages of Danio rerio compared with pemetrexed (Danio rerio),"log kw,IAM [2]","log kw,ODS [3]",antiproliferative effects in cancer cells compared with normal cells (human cancer cells),"log kw,ODS [4]","log kw,IAM [5]"
O=c1c(C(F)(F)F)nnc2n1CCN2c1ccccc1 [Compound 7],14.11,12.22,10.72,10.02,safer for the early life stages of Danio rerio than pemetrexed,0.94 [19],1.92 [19],–,–,–
Cc1ccccc1N1CCn2c1nnc(C(F)(F)F)c2=O [Compound 8],6.50,5.97,5.52,5.28,safer for the early life stages of Danio rerio than pemetrexed,0.76 [19],1.81 [19],clearly higher antiproliferative effects in cancer cells than in normal cells,–,–
CCOC(=O)c1nnc2n(c1=O)CCN2c1ccc(Cl)c(Cl)c1 [Compound 19],24.39,18.98,14.97,14.81,–,–,–,clearly higher antiproliferative effects in cancer cells than in normal cells,3.24,3.36
